In data set [1] the target is T1, Constitutive androstane receptor (CAR) (Homo sapiens, UniProt Q14994).
T1 construct: The pGL4-gtPBREM plasmid was transfected into Hep3B cells; endogenous in cells
T1 sequence (Q14994 1-352): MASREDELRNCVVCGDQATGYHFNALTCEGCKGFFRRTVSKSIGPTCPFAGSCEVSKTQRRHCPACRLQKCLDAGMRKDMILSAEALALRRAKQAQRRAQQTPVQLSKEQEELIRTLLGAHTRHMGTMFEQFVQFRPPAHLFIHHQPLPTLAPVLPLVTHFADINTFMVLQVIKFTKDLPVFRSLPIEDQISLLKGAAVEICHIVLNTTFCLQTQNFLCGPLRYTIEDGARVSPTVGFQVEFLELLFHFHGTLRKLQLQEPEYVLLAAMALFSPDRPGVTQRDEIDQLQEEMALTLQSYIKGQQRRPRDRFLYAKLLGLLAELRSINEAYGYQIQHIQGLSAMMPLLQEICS
Nature of the data set: In vitro CAR activation screening assay (UGT1A1 promoter gtPBREM-pGL4 luciferase reporter in Hep3B-gtPBREM cells). The following applies: for activation at 10 µM: (luminescence of compound − luminescence of scoparone)/luminescence of scoparone × 100%, read-out: CAR Activation Fold. In kind it is cell-based. From the text:
Until now, there is no commercially available high throughput screening method for CAR activation. Traditionally, CAR activation can be detected in western blots by its downstream signals such as UGT1A1, MRP2 or CYP2B6. […] However, this method was slow and pricy. In order to rapidly screen all the compounds for CAR activation at less cost, an in vitro CAR activation screening assay was developed: DNA was extracted from Hep3B cells and UGT1A1 promoter was obtained using PCR amplification. Ligation between UGT1A1 promoter and pGL4 vector was performed and the plasmid was amplified via E. coli replication. The desired plasmid was extracted from E. coli and transfected into Hep3B. The desired colony bearing UGT1A1 promoter-pGL4 plasmid was selected by neomycin. CAR activation was measured by adding tested compounds to Hep3B for several hours and luminescence was measured. Higher activation will get higher luminescence readout. This assay system was validated with two different CAR agonists: CITCO (direct agonist) and scoparone (an indirect agonist). […] Different concentration of scoparone at 1, 5, 10 and 20 μM had been tested either for luciferase assay or downstream UGT1A1 and MRP2 expression (data not shown) and 10 μM was selected to be the best condition for the following work.
After successfully establishing the in vitro assay, all of the coumarin compounds were subjected to the screening (at 10 μM) and their SAR was discussed. Although the reporter system can successfully identify CAR-activating compounds under 8 h and display better efficiency and sensitivity compared with western blots, it only presented a medium luciferase response. According to previous studies, CITCO was reported to only moderately enhance human CAR (less than 2-fold), compared with the enhance provided by TCPOBOP for murine CAR (5- to 10-fold) in luciferase reporter assays. […] Another possibility for the medium response in our reporter system might be the contribution of the whole gtPBREM element which might include response-suppressive elements that was used and the single nucleotide variation of DR3 element which was reported to slightly reduce the original UGT1A1 activity.
The genomic DNA was isolated from Hep3B cells using Wizard® Genomic DNA Purification Kit (Promega, Fitchburg, WI, USA). The promoter region of UGT1A1 gene, gtPBREM element, was amplified by AccuPrime^TM Taq DNA Polymerase High Fidelity Kit (Invitrogen, MA, USA). The sequence of the amplified element was confirmed by DNA sequencing company and cloned into pGL4 luciferase reporter vector. The pGL4-gtPBREM plasmid was transfected into Hep3B cells. The stable pGL4-gtPBREM transfected Hep3B cells, Hep3B-gtPBREM cells, were established after G418 selection. The luciferase activity represented of CAR activation ability was measured using individual established clone. Further, CAR-shRNA was obtained from the Genomic Research Center and transfected into Hep3B-gtPBREM cells. The transient transfected shCAR-Hep3B-gtPBREM cells were used for further luciferase assays.
The Hep3B-gtPBREM cells and shCAR-Hep3B-gtPBREM cells (1.5 × 10^5 cells/well) were seeded into 12-well plates for overnight then pre-determined concentration compounds were added for desired time. After treatment, transfected cells were washed twice in PBS, lysated with 1× passive lysis buffer and luciferase intensity of equal amount of cell lysate was measured by a Synergy HT Multi-Mode Microplate Reader (BioTek, Winooski, VT, USA).

A further data set has as its system human CAR. Details: method as in PMID 10757780, PMID 12611900. Conditions: cited from earlier work.
A further data set has as its system MRP2. Nature of the data set: Protein expression of MRP2 (western blot). In kind it is cell-based, human. The following applies: Figure 2; after scoparone or CITCO treatment. The protocol: Figure 7 The protein expressions of MRP2 after 6,7-diprenoxycoumarin (50) treatment. Hep3B cell (1 × 10^6) were treated with 50 (5, 10, 20 and 40 μM) for 24 h. Treated cell lysates were prepared as described in the Methods section and the expression of MRP2 was analyzed by western blot.
(§1) 1 × 10^6 cells were seeded in a 10 cm plate, incubated at 37 °C for overnight and treated with various concentrations of compounds for the indicated times. After incubation, the culture medium was removed and washed twice with 2 mL ice-cold 1× PBS. Three hundred μL of protein lysis buffer (150 mM NaCl, 50 mM Tris-HCl (pH 7.4), 1% SDS, 1% Triton X-100, 1 mM PMSF) was added into each plate, scraped with a rubber policeman, collected into a premarked microtube and the incubated in ice for 1 h, sonicated by Ultrasonic Cell Disruptor for three time at 5 s each. The cell lysated was cleared by centrifugation at 12,000× g for 15 min at 4 °C. Supernatants were transferred into a fresh marked microtube and stored at −20 °C for future use.
(§2) Protein concentration of each sample was determined using a BCA Protein Assay Kit (Pirece®, Thermo Scientific). Different percentages of SDS-PAGE gels were prepared according to the molecular size of proteins of interest. After complete polymerization of stacking gels, each sample with equal amount of total protein was separated in polyacrylamide gels (stacking gel: 50 v, 60 min; separating gel: 100 v, 60 min). After separating, wet-transfer method was utilized to transfer proteins onto the PVDF membrane. The gels were assembled in the transfer sandwich and put in a transfer tank filled with transfer buffer (25 mM glycine, 0.15% ethanolamine, 20% methanol). The electro-transfer was performed at the voltage of 100 volt for 80 min at 4 °C. After transfer, PVDF-membrane was blocked with 5% BSA in 1× TBS-Tween at room temperature for 1 h. Membrane was washed with 10 mL 1× TBS-Tween three times and incubated with primary antibodies overnight at 4 °C with gentle agitation. […] The emitted fluorescence from the membrane was caught on a LAS-4000 biomolecule imager (FUJI.).
Background: Immunoblotting shows a protein as a band on a membrane.

In the next data set the test system is UGT1A1. Nature of the data set: Protein expression of UGT1A1 (western blot). In kind it is cell-based, human. The following applies: Figure 2; after scoparone or CITCO treatment. The protocol:
as §1
as §2, with “agitation. After primary antibody was removed, the membrane was washed three times with 10 mL 1× TBS-Tween for 10 min at room temperature with constant shaking.” for “agitation.”

The test system of data set [2] is phosphoenopyruvate carboxykinse (PEPCK) mRNA expression. Description: PEPCK mRNA expression induced by dexamethasone and 8-bromo-cAMP in H4IIE cells. In kind it is cell-based, rat. The following applies: dexamethasone (500 nM) + 8-bromo-cAMP. The protocol:
S21 Effects of scoparone, 50 (PLH), and 6 on phosphoenopyruvate carboxykinse (PEPCK) mRNA expression induced by dexamethasone and 8-bromo-cAMP.
A quantified result of dexamethasone (500 nM) and 8-bromo-cAMP (100µM) induced PEPCK mRNA expression in the presence or absence of scoparone, 50 (PLH) and 6 at 0.78 µM was shown. Insulin (10 nM) was served as an experimental control. Quantified data was presented as mean ± S.E.M. (n = 4). **P < 0.01 and ***P < 0.001 when compared with induction control (None).
PEPCK mRNA could be induced by dexamethasone and 8-bromo-cAMP after 3hr. The presence of insulin […]
Scoparone, at 0.78 µM, can suppress PEPCK
In contrast, both 50 (PLH) and 6 could also suppress PEPCK
Cell culture: The rat H4IIE cells were cultured in Dulbecco’s Modified Eagle’sMedium (DMEM) containing 1 g/L glucose, 5% (v/v) fetal calf serum (FBS) and 1% (v/v) antibiotics (100 U/mL penicillin and 0.1 g/L streptomycin). Cultured cells were maintained at 37 ◦C in an atmosphere of 5% CO2 and 95% air.
The measurement of PEPCK gene expression: H4IIE cells were seeded into 6 cm dish and allowed for the attachment. After serum starvation overnight, cells were treated with various conditions described in the figure legend. After treatment, total RNA of each treatment was extracted using TRI-reagent according to the manufacturer’s instructions. The pelleted RNA was dissolved in distilled water, quantified with NanoDrop™ 1000 Spectrophotometer (Thermo Fisher Scientific, USA) and stored at −70 ◦C. Total RNA (1µg) was reverse transcribed to generate templates. 50 ng of cDNA was employed for further PCR. The sequences of […]
primers for β-actin: 5’-[…]- 3’ and 5’-[…]-3’ and […]
(1 picture or pasted object on this page, not shown here)

A further data set has as its system murine CAR. The arrangement: method as in PMID 10757780, PMID 12611900. Conditions: cited from earlier work.
The subject of the next data set is CAR protein. Nature of the data set: Immunofluorescence staining for CAR translocation in Hep3B cells. In kind it is cell-based, human. The following applies: pre-treated with 10 nM okadaic acid, then 50 (10 μM) 2 h. How it is done: Figure 3 Image of immunofluorescence staining for CAR translocation in Hep3B cells after 6,7-diprenoxycoumarin (50) treatment (A) and scoparone treatment (C). Hep3B cells were treated with 50 (10 μM) for 2 h. The negative control group was pre-treated with 10 nM okadaic acid (OA). The blue and green fluorescence stands for signals of nuclei and CAR protein, respectively. The protein expression of nuclear CAR after 6,7-diprenoxycoumarin (50) treatment for 2 h (B).
Hep3B cells (4 × 10^5) were grown on coverslips for overnight then washed twice with 1× PBS and fixed with 4% paraformaldehyde in 1× PBS for 30 min at room temperature. Cells were then permeabilized with 1× PBS containing 0.1% (v/v) Triton X-100 for 10–15 min and blocked in 1× PBS containing 5% BSA for 1 h at room temperature. CAR antibody (1:200 dilutions) was added and reacted at room temperature for 2 h in 1× PBS containing 5% BSA. FITC-conjugated goat anti-rabbit IgG antibody was added for another 1 h at room temperature. Coverslips were mounted and images were acquired under a fluorescence microscope.

Where two headings read alike, the source gives them in different places.

In the case of `Clc1ccc(-c2nc3sccn3c2/C=N/OCc2ccc(Cl)c(Cl)c2)cc1` [CITCO, 6-(4-Chlorophenyl) imidazo [2,1-b] [1, 3] thiazole-5-carbaldehyde O-(3,4-dichlorobenzyl) oxime, reference compound], in data set [1] (assay validation, direct agonist), the “elevation of luciferase activity” value is on record as “about 50%”. In addition, the “enhancement of human CAR in luciferase reporter assays” value in the data set with human CAR is “less than 2 fold”. In addition, the “protein expression of MRP2 (CAR downstream gene)” value with MRP2 is reported as “upregulated”. Moreover, in the data set on UGT1A1, the “protein expression of UGT1A (CAR downstream gene)” value is reported as “upregulated”.

In the case of `CC(C)=CCOc1cccc2oc(=O)ccc12` [Compound 6], the activation at 10 µM in data set [1] (Table 1) was -5%. Moreover, the “suppression of PEPCK mRNA induction” value in data set [2] (test compounds as printed) is “less potent”.

For the compound `O=c1ccc2cc(OC(F)(F)F)ccc2o1` [Compound 11, 6-Trifluoromethoxycoumarin], the melting point – broadly, the temperature of the solid-liquid transition – was in the range of 83 to 85 °C. The activation at 10 µM in data set [1] (Table 1) was -34%.

For `O=c1ccc2ccc(OC(F)(F)F)cc2o1` [Compound 20, 7-Trifluoromethoxycoumarin], the melting point fell in the range of 69 to 71 °C. The activation at 10 µM in data set [1] (Table 1) worked out at 18%.

`C=CCOc1cc2ccc(=O)oc2cc1OCC=C` [Compound 44, 6,7-Dialloxycoumarin] registered a melting point of 84 to 85 °C. In addition, in data set [1] (Table 2), the activation at 10 µM was -18%.

`CCCCOc1cc2ccc(=O)oc2cc1OCCCC` [Compound 46, 6,7-Di-n-butoxycoumarin] yielded a melting point of 77 to 79 °C. Further, the activation at 10 µM in data set [1] (Table 2) was -39%.

Regarding `Clc1cnc(Oc2ccc(Oc3ncc(Cl)cc3Cl)cc2)c(Cl)c1` [TCPOBOP], the “enhancement of murine CAR in luciferase reporter assays” value in the data set with murine CAR is listed as 5- to 10 fold.

For the compound `C=C1[C@@H](O)[C@@H]2O[C@]3(CC[C@H](/C=C/[C@@H](C)[C@@H]4CC(C)=C[C@@]5(O[C@H](C[C@@](C)(O)C(=O)O)CC[C@H]5O)O4)O3)CC[C@H]2O[C@@H]1[C@@H](O)C[C@H](C)[C@H]1O[C@@]2(CCCCO2)CC[C@H]1C` [okadaic acid, reference compound], the “CAR translocation activity of 50 after pre-treatment” value in the data set on CAR protein is “inhibited”.

As for “insulin: Insulin (10 nM) served as an experimental control in the PEPCK assay”, the “suppression of PEPCK mRNA induction” value in data set [2] (10 nM, experimental control) is on record as “suppress such induction”.

The values above are taken from PMC7796031, “Studies of Coumarin Derivatives for Constitutive Androstane Receptor (CAR) Activation” (Molecules, 2020).
